According to patent US9718774B2, “Indole carboxamide derivatives as P2X7 receptor antagonist” (ACTELION PHARMACEUTICALS LTD, priority 2012, dated 2017):

Target: T1, human recombinant P2X7 receptor (Homo sapiens, UniProt Q99572)
T1 construct: expressed in transfected cells
T1 sequence (Q99572 1-595): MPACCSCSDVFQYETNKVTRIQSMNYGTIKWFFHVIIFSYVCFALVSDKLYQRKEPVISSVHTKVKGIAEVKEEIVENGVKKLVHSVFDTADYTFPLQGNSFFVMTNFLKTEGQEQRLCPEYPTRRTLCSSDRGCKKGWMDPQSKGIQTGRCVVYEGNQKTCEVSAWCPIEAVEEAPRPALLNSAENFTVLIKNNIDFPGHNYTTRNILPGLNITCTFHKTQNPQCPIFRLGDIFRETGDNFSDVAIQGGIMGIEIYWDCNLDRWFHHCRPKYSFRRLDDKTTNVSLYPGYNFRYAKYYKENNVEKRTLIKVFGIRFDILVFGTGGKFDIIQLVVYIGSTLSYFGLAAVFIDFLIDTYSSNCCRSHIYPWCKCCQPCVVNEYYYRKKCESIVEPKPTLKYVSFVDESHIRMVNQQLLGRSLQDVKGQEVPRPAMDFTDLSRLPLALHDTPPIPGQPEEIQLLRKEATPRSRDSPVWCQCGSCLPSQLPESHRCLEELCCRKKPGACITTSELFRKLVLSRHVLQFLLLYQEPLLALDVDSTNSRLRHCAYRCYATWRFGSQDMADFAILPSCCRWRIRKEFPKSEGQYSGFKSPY
Test: YO-PRO assay: P2X7 receptor antagonistic activity in HEK cells stably expressing P2X7
Format: cell-based
Conditions: antagonistic activity with respect to the P2X7 receptor, read-out: IC50
Description: The P2X7 receptor antagonistic activity of the compounds of formula (I) is determined in accordance with the following experimental method.
Cell Line Generation and YO-PRO Assay
Cell line generation was performed in general according to established molecular cloning protocols. Specifically, RNA was extracted from human whole blood using the Qiagen RNeasy kit (Qiagen, CH) according to the manufacturer's instructions. Subsequently cDNA was made (Superscript II, Invitrogen AG, CH) and the human P2X7 gene (genbank ref. BC011913) was amplified with the following primers: […] and […]. The amplified sequence was subsequently ligated into a pcDNA3.1 (+) NotI, NheI digested plasmid. Human embryonic kidney (HEK) cells (ATCC CRL—1573, Manassas, Va., USA) were transfected with the pcDNA3.1 (+).hP2X7 plasmid using lipofectamine 2000 (Invitrogen AG, CH) according to the manufacturer's instructions. Following a 24 h exposure to DNA, cells were trypsinized and re-seeded at low density in the presence of 250 μg Geneticin. Geneticin resistant cells were then selected during two consecutive rounds of cloning by serial limiting dilution with visual inspection. Individual clones were screened for P2X7 expression by applying ATP and recording the resultant uptake of YO-PRO1. Specific cell clones were chosen based on RNA and protein expression. HEK cells stably expressing P2X7 were used to screen drugs using the YO-PRO1 assay. Cells were grown to confluency in adherent culture at 37° C. in a humidified 5% CO2 incubator (split 1/5 every 3-4 days with DMEM, 10% FCS, 1% Penicillin/Streptomycin, 250 μg/ml Geneticin). Adherent cells were detached by incubation with Trypsine (1 ml per 165 cm^2 dish) for 2 minutes, then washed off with 10 ml PBS (without Mg^2+ and Ca^2+), and resuspended in DMEM, 10% FCS, 1% Penicillin/Streptomycin, no Geneticin. 10′000 cells per well (48 hours before the assay) or 25′000 cells per well (Vi-cell XR (Beckman Coulter) (24 hours before the assay) in 50 μl full medium were seeded on 384-well black-wall, clear bottom plates, that were coated before with 10 μl per well Poly-L-Lysine, incubated for 30-60 minutes at 37° C. and washed once with PBS. Medium was removed from cells and 50 μl of assay buffer containing 0.5 μM YO-PRO-1 was added into the wells. Solutions of antagonist compounds were prepared by serial dilutions of a 10 mM DMSO solution of the antagonist into PBS using a BioMek (Beckman Coulter). Each concentration was performed in duplicate. For IC50 measurements 10 concentration points were measured (10 μM being the highest concentration followed by 9 serial dilution steps 1/3). The cells were incubated with the antagonists of the present invention together with ATP at a final concentration of 250 μM for 90 minutes. During this time period, four time points were taken. Each time point comprised the average of several measurements made within a few seconds. Fluorescence was measured in the FLIPR tetra (Molecular Devices) using the filters appropriate for YO-PRO-1 fluorescence (excitation 485/20, emission 530/25). The FLIPR tetra was equipped with Molecular Devices Screen Works system control software to define and run experimental protocols. […] For IC50 measurements the maximum intensity is plotted against the concentration of compound to determine IC50 values.

Structure (SMILES) | IC50 [nM]
Cc1ncc(C(CNC(=O)c2ccc3[nH]ccc3c2Cl)NC2CCCC2)cn1 (racemic) [Example 83, rac-4-Chloro-1H-indole-5-carboxylic acid [2-cyclopentylamino-2-(2-methyl-pyrimidin-5-yl)-ethyl]-amide] | 162
Cc1ncc(C(CNC(=O)c2c(Cl)cc3[nH]ccc3c2Cl)N2CCOCC2)cn1 (racemic) [Example 94, rac-4,6-Dichloro-1H-indole-5-carboxylic acid [2-(2-methyl-pyrimidin-5-yl)-2-morpholin-4-yl-ethyl]-amide] | 211
CC(=O)N1CCC(C(CNC(=O)c2ccc3[nH]ccc3c2Cl)c2cccnc2)CC1 (racemic) [Example 22, rac-4-Chloro-1H-indole-5-carboxylic acid [2-(1-acetyl-piperidin-4-yl)-2-pyridin-3-yl-ethyl]-amide] | 126
CCOC(CNC(=O)c1ccc2[nH]ccc2c1Cl)c1cnc(C)nc1 (racemic) [Example 67, rac-4-Chloro-1H-indole-5-carboxylic acid [2-ethoxy-2-(2-methyl-pyrimidin-5-yl)-ethyl]-amide] | 636
Cc1ncc(C(CNC(=O)c2ccc3[nH]ccc3c2Cl)N2CC(C)OC(C)C2)cn1 (single isomer, unassigned) [Example 42, 4-Chloro-1H-indole-5-carboxylic acid [2-(2,6-dimethyl-morpholin-4-yl)-2-(2-methyl-pyrimidin-5-yl)-ethyl]-amide] | 36
O=C(NCC(c1ccc(C(F)(F)F)cc1)N1CCOCC1)c1ccc2[nH]ccc2c1Cl (racemic) [Example 49, rac-4-Chloro-1H-indole-5-carboxylic acid [2-morpholin-4-yl-2-(4-trifluoromethyl-phenyl)-ethyl]-amide] | 34
O=C(NCC(c1ccc(F)c(F)c1)N1CCCCC1)c1ccc2[nH]ccc2c1Cl (racemic) [Example 45, rac-4-Chloro-1H-indole-5-carboxylic acid [2-(3,4-difluoro-phenyl)-2-piperidin-1-yl-ethyl]-amide] | 83
Cc1ncc(C(CNC(=O)c2ccc3[nH]ccc3c2Cl)N2CCCCCC2)cn1 (racemic) [Example 80, rac-4-Chloro-1H-indole-5-carboxylic acid [2-azepan-1-yl-2-(2-methyl-pyrimidin-5-yl)-ethyl]-amide] | 25
Cc1ncc(C(CNC(=O)c2ccc3[nH]ccc3c2Cl)N2CC(C)OC(C)C2)cn1 (single isomer, unassigned) [Example 41, 4-Chloro-1H-indole-5-carboxylic acid [2-(2,6-dimethyl-morpholin-4-yl)-2-(2-methyl-pyrimidin-5-yl)-ethyl]-amide] | 651
COCCCc1cc(C(=O)NCC(c2cnc(C)nc2)N2CCOCC2)c(Cl)c2cc[nH]c12 (racemic) [Example 99, rac-4-Chloro-7-(3-methoxy-propyl)-1H-indole-5-carboxylic acid [2-(2-methyl-pyrimidin-5-yl)-2-morpholin-4-yl-ethyl]-amide] | 21
Cc1ncc(C(CNC(=O)c2ccc3[nH]ccc3c2Cl)OC2CCCC2)cn1 (racemic) [Example 52, rac-4-Chloro-1H-indole-5-carboxylic acid [2-cyclopentyloxy-2-(2-methyl-pyrimidin-5-yl)-ethyl]-amide] | 32
CCC(CC)OC(CNC(=O)c1ccc2[nH]ccc2c1Cl)c1cnc(C)nc1 (racemic) [Example 71, rac-4-Chloro-1H-indole-5-carboxylic acid [2-(1-ethyl-propoxy)-2-(2-methyl-pyrimidin-5-yl)-ethyl]-amide] | 22
Cc1ncc(C(CNC(=O)c2ccc3[nH]ccc3c2Cl)N2CC3CC2CO3)cn1 (stereo not drawn) [Example 68, 4-Chloro-1H-indole-5-carboxylic acid [2-(2-methyl-pyrimidin-5-yl)-2-(2-oxa-5-aza-bicyclo[2.2.1]hept-5-yl)-ethyl]-amide] | 2060
Cc1ncc(C(CNC(=O)c2cc(OCCOC(C)(C)C)c3[nH]ccc3c2Cl)N2CCOCC2)cn1 (racemic) [Example 112, rac-7-(2-tert-Butoxy-ethoxy)-4-chloro-1H-indole-5-carboxylic acid [2-(2-methyl-pyrimidin-5-yl)-2-morpholin-4-yl-ethyl]-amide] | 32
Cc1ncc(C(CNC(=O)c2ccc3[nH]ccc3c2Cl)N2CCN(C(=O)OC(C)(C)C)CC2)cn1 (racemic) [Example 89, rac-4-[2-[(4-Chloro-1H-indole-5-carbonyl)-amino]-1-(2-methyl-pyrimidin-5-yl)-ethyl]-piperazine-1-carboxylic acid tert-butyl ester] | 277

Now those with a lower IC50, led by results:

IC50 [nM] | Structure (SMILES)
20 | Cc1ncc(C(CNC(=O)c2ccc3[nH]ccc3c2C)N2CCOCC2)cn1 (single isomer, unassigned) [Example 105, 4-Methyl-1H-indole-5-carboxylic acid [2-(2-methyl-pyrimidin-5-yl)-2-morpholin-4-yl-ethyl]-amide]
13 | CCOc1cc(C(=O)NCC(c2cnc(C)nc2)N2CCOCC2)c(Cl)c2cc[nH]c12 (racemic) [Example 110, rac-4-Chloro-7-ethoxy-1H-indole-5-carboxylic acid [2-(2-methyl-pyrimidin-5-yl)-2-morpholin-4-yl-ethyl]-amide]
8.7 | O=C(NCC(c1cncnc1)N1CCCCC1)c1ccc2[nH]ccc2c1Cl (racemic) [Example 27, rac-4-Chloro-1H-indole-5-carboxylic acid (2-piperidin-1-yl-2-pyrimidin-5-yl-ethyl)-amide]
3.9 | O=C(NCC(c1cnc(C(F)(F)F)nc1)N1CCOCC1)c1ccc2[nH]ccc2c1Cl (racemic) [Example 1, rac-4-Chloro-1H-indole-5-carboxylic acid [2-morpholin-4-yl-2-(2-trifluoromethyl-pyrimidin-5-yl)-ethyl]-amide]
9.7 | Cc1ncc(C(CNC(=O)c2ccc3[nH]ccc3c2Cl)N2CCCCC2)cn1 (racemic) [Example 16, rac-4-Chloro-1H-indole-5-carboxylic acid [2-(2-methyl-pyrimidin-5-yl)-2-piperidin-1-yl-ethyl]-amide]
19 | Cc1ccc(C(CNC(=O)c2ccc3[nH]ccc3c2Cl)N2CCOCC2)cn1 (racemic) [Example 7, rac-4-Chloro-1H-indole-5-carboxylic acid [2-(6-methyl-pyridin-3-yl)-2-morpholin-4-yl-ethyl]-amide]
15 | O=C(NCC(c1ccns1)N1CCCCC1)c1ccc2[nH]ccc2c1Cl (racemic) [Example 61, rac-4-Chloro-1H-indole-5-carboxylic acid (2-isothiazol-5-yl-2-piperidin-1-yl-ethyl)-amide]
15 | CCc1cc(C(=O)NCC(c2cnc(C)nc2)N2CCOCC2)c(Cl)c2cc[nH]c12 (racemic) [Example 107, rac-4-Chloro-7-ethyl-1H-indole-5-carboxylic acid [2-(2-methyl-pyrimidin-5-yl)-2-morpholin-4-yl-ethyl]-amide]
8.8 | O=C(NCC(c1ccc(Cl)nc1)N1CCCCC1)c1ccc2[nH]ccc2c1Cl (racemic) [Example 56, rac-4-Chloro-1H-indole-5-carboxylic acid [2-(6-chloro-pyridin-3-yl)-2-piperidin-1-yl-ethyl]-amide]
